Reference: ChEMBL document CHEMBL1681671, “Substrate-controlled chemoselective synthesis and potent cytotoxic activity of novel 5,6,7-triarylpyrido[2,3-d]pyrimidin-4-one derivatives” (Bioorg Med Chem Lett, 2011)
Values after ≈ are worked out from the molar mass of the structure shown.

How the values were obtained:
SGC-7901 = assay: Cytotoxicity against human SGC7901 cells assessed as cell mortality after 20 hrs by MTT assay; type: functional, cell-based; details: SGC-7901, 20 h
[1] = Cytotoxicity against human SW1116 cells assessed as cell proliferation inhibition rate at 1 ug/ml after 24 hrs by MTT assay; type: functional; details: SW 1116, 24 h
[2] = Cytotoxicity against human SW1116 cells assessed as cell proliferation inhibition rate at 0.1 ug/ml after 24 hrs by MTT assay; type: functional; details: SW 1116, 24 h
[3] = Cytotoxicity against human SW1116 cells assessed as cell proliferation inhibition rate at 10 ug/ml after 24 hrs by MTT assay; type: functional; details: SW 1116, 24 h

Compound	IC50 (SGC-7901) [µg/mL]	inhibition at 1 µg/mL [1] [%]	inhibition at 0.1 µg/mL [2] [%]	inhibition at 10 µg/mL [3] [%]
Nc1nc2c(c(=O)[nH]1)C(c1ccc(F)cc1)C(c1ccccc1)=C(c1ccccc1)N2 (stereo unspecified)	13 (≈ 31.8 µM)	17.6	31.6	50.3
Nc1nc2c(c(=O)[nH]1)C(c1ccc(Br)cc1)C(c1ccccc1)=C(c1ccccc1)N2 (stereo unspecified)	0.074 (≈ 0.157 µM)	19.3	19.8	12
Nc1nc2c(c(=O)[nH]1)C(c1ccc(Cl)cc1)C(c1ccccc1)=C(c1ccccc1)N2 (stereo unspecified)	0.104 (≈ 0.244 µM)	25.1	14.9	25.5
COc1ccc(C2C(c3ccccc3)=C(c3ccccc3)Nc3nc(N)[nH]c(=O)c32)cc1 (stereo unspecified)	0.341 (≈ 0.807 µM)	29.1	43	42.8
CN(C)c1ccc(C2C(c3ccccc3)=C(c3ccccc3)Nc3nc(N)[nH]c(=O)c32)cc1 (stereo unspecified)	0.79 (≈ 1.81 µM)	27.9	20.5	14
Nc1nc2c(c(=O)[nH]1)C(c1ccc3c(c1)OCO3)C(c1ccccc1)=C(c1ccccc1)N2 (stereo unspecified)	0.09 (≈ 0.206 µM)	34.6	15.1	20.6
Nc1nc2c(c(=O)[nH]1)C(c1cccs1)C(c1ccccc1)=C(c1ccccc1)N2 (stereo unspecified)	0.108 (≈ 0.271 µM)	37.2	22.4	48.3
COc1ccccc1[C@@H]1c2c(nc(N)[nH]c2=O)N=C(c2ccccc2)[C@H]1c1ccccc1 (racemic)	0.359 (≈ 0.85 µM)	6.47	22.4	31.6
COc1ccc([C@@H]2c3c(nc(N)[nH]c3=O)N=C(c3ccccc3)[C@H]2c2ccccc2)cc1OC (racemic)	0.606 (≈ 1.34 µM)	13.8	2.24	23.9
COc1cc([C@@H]2c3c(nc(N)[nH]c3=O)N=C(c3ccccc3)[C@H]2c2ccccc2)cc(OC)c1OC (racemic)	2.98 (≈ 6.17 µM)	16.7	21.8	36.9
Nc1nc2c(c(=O)[nH]1)[C@@H](c1ccccc1Cl)[C@H](c1ccccc1)C(c1ccccc1)=N2 (racemic)	1.56 (≈ 3.67 µM)	27.3	31.8	38.7
COc1cccc2c1C(=O)c1c(O)c3c(c(O)c1C2=O)C[C@@](O)(C(=O)CO)C[C@@H]3O[C@H]1C[C@H](N)[C@H](O)[C@H](C)O1.Cl [DOXORUBICIN HYDROCHLORIDE]	0.078			28.5
